According to article PMC4366275 (Anesthesiology, 2015):

Molecular target: PDZ1–3 (PDZ123) domains of PSD-95 (Rattus norvegicus, UniProt P31016)
Assay: […]-1H HSQC NMR chemical shift titration
Format: binding

PDZ1–3 (PDZ123) domains of PSD-95, sequence (P31016 61-393): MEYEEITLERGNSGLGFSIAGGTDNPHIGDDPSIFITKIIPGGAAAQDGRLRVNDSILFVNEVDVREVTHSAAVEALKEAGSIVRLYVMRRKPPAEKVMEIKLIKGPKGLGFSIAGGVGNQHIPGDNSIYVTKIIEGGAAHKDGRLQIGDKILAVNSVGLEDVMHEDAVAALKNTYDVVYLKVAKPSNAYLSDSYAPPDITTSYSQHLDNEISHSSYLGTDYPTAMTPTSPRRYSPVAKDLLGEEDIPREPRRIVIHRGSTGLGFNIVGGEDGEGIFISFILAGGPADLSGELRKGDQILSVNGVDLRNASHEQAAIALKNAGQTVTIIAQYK

FC(F)OC(Cl)C(F)(F)F (stereo not shown) [isoflurane]
Kd: ~3 mM
